Test results published in the SangsterLogP compilation.

In the case of `CCCCC(CC)C(=O)N1c2ccc(C)cc2C2CN(C)CCC21` (stereo not given), the logP is reported as 4.14.
Work on `CC(=O)N1c2ccc(C)cc2[C@H]2CN(C)CC[C@H]21` (relative stereo) yielded a logP of 1.25.
Work on `CCCCCCC(=O)N1c2ccc(C)cc2[C@H]2CN(C)CC[C@H]21` (relative stereo) yielded a logP of 3.57.
Work on `CCCCCCCCC(=O)N1c2ccc(C)cc2[C@H]2CN(C)CC[C@H]21` (relative stereo) yielded a logP of 4.41.
Work on `CCCCCCCCCC(=O)N1c2ccc(C)cc2[C@H]2CN(C)CC[C@H]21` (relative stereo) yielded a logP of 4.83.
Work on `CCCCCCCCCCCC(=O)N1c2ccc(C)cc2[C@H]2CN(C)CC[C@H]21` (relative stereo) yielded a logP of 5.66.
For `CCCCCCCCCCCCCC(=O)N1c2ccc(C)cc2[C@H]2CN(C)CC[C@H]21` (relative stereo), the logP was 6.7.
For `CCCCCCCCCCCCCCCC(=O)N1c2ccc(C)cc2[C@H]2CN(C)CC[C@H]21` (relative stereo), the logP was 7.33.
`Cc1ccc2c(c1)[C@H]1CN(C)CC[C@H]1N2` (relative stereo) showed a logP of 1.6.
Compound `Cc1ccc2c(c1)[C@H]1CN(C)CC[C@H]1N2C(=O)C=Cc1ccccc1` (relative stereo) has a logP of 3.49.
